# Earlier results, collected in patent US20250288577A1, “METHODS OF TREATING A VIRUS INFECTION AND METHODS OF INHIBITING VIRAL REPLICATION” (CORNELL UNIVERSITY, priority 2022, published 2025).
# What was measured:
# [1] = system: Adenovirus; conditions: reported in literature
# [2] = system: influenza A; conditions: reported in literature
structure (smiles),measurement,setting,value
"O=C(Cc1cccc(OC(F)(F)F)c1)Nc1ccc(CCCCc2nnc(NC(=O)Cc3ccccn3)s2)nn1 [CB839, Telaglenastat]",block of Adenovirus,[1],block
same,block of influenza A,[2],block
